Experimental data as given in publication PMC3260417 (Bioorganic Chemistry, 2011).

Experiments:
[1] = target: DAH7PS^Ap (DAHPS^Ap; 3-deoxy-D-arabino-heptulosonate 7-phosphate synthase) (Aeropyrum pernix, UniProt Q9YEJ7); test: initial rates, discontinuous periodate-thiobarbituric acid; assay type: biochemical; details: read-out: apparent Km; 3 mM PEP (saturating), pH 7.0, 60 °C; enzyme as isolated (Zn)
[2] = target: 3-deoxy-D-arabino-heptulosonate 7-phosphate synthase from Aeropyrum pernix (Aeropyrum pernix); test: SEC

Km [1] [µM]	stoichiometry N [2]	Molecule
280 ± 20	–	O=C[C@H](O)[C@H](O)COP(=O)(O)O [E4P]
–	2	3-deoxy-D-arabino-heptulosonate 7-phosphate synthase from Aeropyrum pernix (enzyme)
